According to paper PMC9019904, “AD Informer Set: Chemical tools to facilitate Alzheimer's disease drug discovery” (Alzheimer's & Dementia : Translational Research & Clinical …, 2022):

Tests used:
[1] = system: BV2 (mouse microglia) cell line; assay: pHrodo-myelin phagocytosis/cell viability high content imaging assay: phagocytosis signal; type: cell-based
How it was run: (§1)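 Cells receive pHrodo-myelin, then are imaged at high content approximately 22 hours later. Phagocytosis signal and viability are captured in the same run. Three measurements are extracted per well.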

[2] = system: HMC3 (human microglia) cell line; assay: as above; type: cell-based
How it was run: as §1

[3] = system: BV2 (mouse microglia) cell line; assay: pHrodo-myelin phagocytosis/cell viability high content imaging assay: viability (cell count, nuclear area, nuclear intensity); conditions: 48 hours treatment
How it was run: (§2)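 Immortalized microglia are treated with compound (10 μM, single concentration) for 48 h, the final 20 h alongside pHrodo-myelin. Data are the mean of duplicates, reported as % of untreated control.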

[4] = system: HMC3 (human microglia) cell line; assay: as above; conditions: 48 hours treatment
How it was run: as §2

[5] = BV2, compound 10 uM, pHrodo-myelin
[6] = HMC3, compound 10 uM, pHrodo-myelin
[7] = BV2 cells, 10 uM compound, 48 hours treatment, pHrodo-myelin final 20 hours
[8] = HMC3 cells, 10 uM compound, 48 hours treatment, pHrodo-myelin final 20 hours

Structure (SMILES) | 4. Phagocytosis (% control) [1, 5] [% control] | 4. Phagocytosis (% control) [2, 6] [% control] | 1. Cell count (% control) ([3]; BV2, compound 10 uM) | 2. Nuclear Area (% Control) ([3]; BV2, compound 10 uM) | 3. Nuclear DNA Intensity (% control) ([3]; BV2, compound 10 uM) | 1. Cell count (% control) ([4]; HMC3, compound 10 uM) | 2. Nuclear Area (% Control) ([4]; HMC3, compound 10 uM) | 3. Nuclear DNA Intensity (% control) ([4]; HMC3, compound 10 uM) | 4. Phagocytosis (% control) [1, 7] [% control] | 4. Phagocytosis (% control) [2, 8] [% control] | 1. Cell count (% control) ([3]; BV2 cells, 10 uM compound) | 2. Nuclear Area (% Control) ([3]; BV2 cells, 10 uM compound) | 3. Nuclear DNA Intensity (% control) ([3]; BV2 cells, 10 uM compound) | 1. Cell count (% control) ([4]; HMC3 cells, 10 uM compound) | 2. Nuclear Area (% Control) ([4]; HMC3 cells, 10 uM compound) | 3. Nuclear DNA Intensity (% control) ([4]; HMC3 cells, 10 uM compound)
O=C(CCl)c1ccccc1Nc1cccc(C(F)(F)F)c1 [UNC10302842A] | 183.6 | 56.6 | 92.3 | 108.5 | 96.7 | 87.6 | 81.7 | 149.6 |  |  |  |  |  |  |  | 
Clc1ccccc1C(c1ccccc1)(c1ccccc1)n1ccnc1 [UNC10100375A] | 144.4 | 70.1 | 67.3 | 102.8 | 90.2 | 105.9 | 98.8 | 95.6 |  |  |  |  |  |  |  | 
CCN(CC)Cc1ccc(C(=O)N(CCc2ccccc2OC)[C@@H]2CCNC2)cc1.Cl.Cl [UNC10302833A] |  |  |  |  |  |  |  |  | 210.8 | 38.5 | 70.3 | 106.1 | 102.7 | 76.9 | 96.9 | 107.9
CN(C)C/C=C/C(=O)Nc1cc2c(Nc3ccc(F)c(Cl)c3)ncnc2cc1O[C@H]1CCOC1 [UNC10302894A] |  |  |  |  |  |  |  |  | 41.4 | 43.8 |  | 107.0 | 89.4 | 95.3 | 52.1 | 246.1
COc1cc(Nc2ncc(F)c(Nc3ccc4c(n3)N(COP(=O)([O-])[O-])C(=O)C(C)(C)O4)n2)cc(OC)c1OC.[Na+].[Na+] [UNC10302863A] |  |  |  |  |  |  |  |  | 0.00651 | 201.3 | 16.5 | 113.6 | 22.9 | 80.8 | 86.8 | 124.3
O=C(Nc1c[nH]nc1-c1nc2cc(CN3CCOCC3)ccc2[nH]1)NC1CC1 [UNC10126643A] |  |  |  |  |  |  |  |  | 1.0 | 64.5 | 6.1 | 158.4 | 29.9 | 85.8 | 114.0 | 123.7
C[C@H](N/C(=N\c1cccc2ncccc12)NC#N)c1ccccc1 [UNC10302855A] |  |  |  |  |  |  |  |  | 124.5 | 63.4 | 130.8 | 103.4 | 103.1 | 114.9 | 101.2 | 97.7
COCC(=O)O[C@]1(CCN(C)CCCc2nc3ccccc3[nH]2)CCc2cc(F)ccc2[C@@H]1C(C)C.Cl.Cl [UNC10303193A] | 0.0 | 9.6 | 0.0 | 78.1 | 3.8 | 77.7 | 77.5 | 143.7 |  |  |  |  |  |  |  | 
CCOC(=O)c1cccc(CNc2ccc(N(C)C(=O)Nc3ccccc3)cc2)c1 [UNC10302705A] | 194.2 | 139.7 | 77.7 | 107.2 | 109.9 | 79.1 | 96.2 | 114.6 |  |  |  |  |  |  |  | 
Cc1ccc(-n2nc(C(C)(C)C)cc2NC(=O)Nc2ccc(OCCN3CCOCC3)c3ccccc23)cc1 [UNC10225354A] |  |  |  |  |  |  |  |  | 236.7 | 109.7 | 127.7 | 105.8 | 105.3 | 144.2 | 99.1 | 93.2
O=C(NC1CCNCC1)c1[nH]ncc1NC(=O)c1c(Cl)cccc1Cl [UNC10302839A] | 18.2 | 183.7 | 4.8 | 121.7 | 82.5 | 70.4 | 131.0 | 97.4 |  |  |  |  |  |  |  | 
O=C(/C=C/c1ccco1)Nc1ncc(Cc2ccccc2)s1 [UNC10302883A] |  |  |  |  |  |  |  |  | 12.7 | 17.7 | 36.1 | 95.3 | 118.7 | 163.4 | 60.3 | 203.4
CNc1nc(C)nc(N[C@H]2CCC[C@@H](C(=O)NCc3ccc(C#N)cc3C(F)(F)F)C2)n1 [UNC10302679A] |  |  |  |  |  |  |  |  | 135.7 | 69.3 | 107.8 | 106.3 | 102.1 | 141.0 | 100.7 | 92.7
CC(C)(C(=O)O)c1ccc(C(O)CCCN2CCC(C(O)(c3ccccc3)c3ccccc3)CC2)cc1.Cl (stereo not shown) [UNC10100548A] |  |  |  |  |  |  |  |  | 106.0 | 96.5 | 104.5 | 103.6 | 104.0 | 137.5 | 98.8 | 98.9
Cc1ccccc1C(=O)Nc1ccc(C(=O)N2CCCC(O)c3cc(Cl)ccc32)c(C)c1 (stereo not shown) [UNC10302860A] | 197.1 | 100.1 | 118.5 | 108.9 | 107.5 | 130.2 | 105.3 | 93.3 |  |  |  |  |  |  |  | 
CN(C)CC[C@H](CSc1ccccc1)Nc1ccc(S(=O)(=O)NC(=O)c2ccc(N3CCN(Cc4ccccc4-c4ccc(Cl)cc4)CC3)cc2)cc1[N+](=O)[O-] [UNC10302898A] |  |  |  |  |  |  |  |  | 104.5 | 82.2 | 128.7 | 97.8 | 106.0 | 148.0 | 98.3 | 97.1
